Reference: ChEMBL document CHEMBL4507319 (2021)

Experiments:
Details in all cases: Compound concentration 1000.0 nM
[1] = molecular target: Serine/threonine-protein kinase N1 (Homo sapiens) (UniProt Q16512)
[2] = system: Epidermal growth factor receptor (Homo sapiens), P00533 [G719C]
[3] = molecular target: T1, Serine/threonine-protein kinase 4 (Homo sapiens) (UniProt Q13043)
T1 sequence (whole entry): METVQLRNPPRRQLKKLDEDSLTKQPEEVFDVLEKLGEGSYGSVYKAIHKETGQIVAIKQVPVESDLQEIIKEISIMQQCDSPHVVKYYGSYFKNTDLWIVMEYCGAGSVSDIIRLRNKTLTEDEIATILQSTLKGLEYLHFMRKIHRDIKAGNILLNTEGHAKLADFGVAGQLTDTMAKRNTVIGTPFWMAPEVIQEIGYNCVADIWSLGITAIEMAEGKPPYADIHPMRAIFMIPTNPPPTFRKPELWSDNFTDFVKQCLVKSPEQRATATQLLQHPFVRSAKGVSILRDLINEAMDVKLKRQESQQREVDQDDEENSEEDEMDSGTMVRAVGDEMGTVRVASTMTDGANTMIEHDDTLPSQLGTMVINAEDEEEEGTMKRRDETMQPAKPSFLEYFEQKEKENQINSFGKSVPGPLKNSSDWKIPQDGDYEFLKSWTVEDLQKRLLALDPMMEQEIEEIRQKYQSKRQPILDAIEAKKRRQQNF

[4] = molecular target: Homeodomain-interacting protein kinase 3 (Homo sapiens) (UniProt Q9H422)
[5] = molecular target: T2, Rhodopsin kinase GRK1 (Homo sapiens) (UniProt Q15835)
T2 sequence (whole entry): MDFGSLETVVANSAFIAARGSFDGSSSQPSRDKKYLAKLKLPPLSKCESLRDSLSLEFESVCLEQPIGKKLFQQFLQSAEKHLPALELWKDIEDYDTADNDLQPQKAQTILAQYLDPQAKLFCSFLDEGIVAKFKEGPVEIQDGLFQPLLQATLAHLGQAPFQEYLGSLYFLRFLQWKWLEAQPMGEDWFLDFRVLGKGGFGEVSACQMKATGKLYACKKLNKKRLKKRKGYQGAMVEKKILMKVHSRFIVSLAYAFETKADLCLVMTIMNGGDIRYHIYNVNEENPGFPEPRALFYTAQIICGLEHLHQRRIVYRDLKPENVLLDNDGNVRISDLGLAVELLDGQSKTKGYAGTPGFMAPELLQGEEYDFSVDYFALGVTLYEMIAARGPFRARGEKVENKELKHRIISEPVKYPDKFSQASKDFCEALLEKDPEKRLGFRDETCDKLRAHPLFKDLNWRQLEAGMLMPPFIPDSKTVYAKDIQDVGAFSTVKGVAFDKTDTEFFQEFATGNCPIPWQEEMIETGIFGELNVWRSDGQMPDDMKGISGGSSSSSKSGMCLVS

[6] = molecular target: Mast/stem cell growth factor receptor Kit (Homo sapiens) (UniProt P10721)
Chain of Mast/stem cell growth factor receptor Kit (Homo sapiens) (P10721 whole entry): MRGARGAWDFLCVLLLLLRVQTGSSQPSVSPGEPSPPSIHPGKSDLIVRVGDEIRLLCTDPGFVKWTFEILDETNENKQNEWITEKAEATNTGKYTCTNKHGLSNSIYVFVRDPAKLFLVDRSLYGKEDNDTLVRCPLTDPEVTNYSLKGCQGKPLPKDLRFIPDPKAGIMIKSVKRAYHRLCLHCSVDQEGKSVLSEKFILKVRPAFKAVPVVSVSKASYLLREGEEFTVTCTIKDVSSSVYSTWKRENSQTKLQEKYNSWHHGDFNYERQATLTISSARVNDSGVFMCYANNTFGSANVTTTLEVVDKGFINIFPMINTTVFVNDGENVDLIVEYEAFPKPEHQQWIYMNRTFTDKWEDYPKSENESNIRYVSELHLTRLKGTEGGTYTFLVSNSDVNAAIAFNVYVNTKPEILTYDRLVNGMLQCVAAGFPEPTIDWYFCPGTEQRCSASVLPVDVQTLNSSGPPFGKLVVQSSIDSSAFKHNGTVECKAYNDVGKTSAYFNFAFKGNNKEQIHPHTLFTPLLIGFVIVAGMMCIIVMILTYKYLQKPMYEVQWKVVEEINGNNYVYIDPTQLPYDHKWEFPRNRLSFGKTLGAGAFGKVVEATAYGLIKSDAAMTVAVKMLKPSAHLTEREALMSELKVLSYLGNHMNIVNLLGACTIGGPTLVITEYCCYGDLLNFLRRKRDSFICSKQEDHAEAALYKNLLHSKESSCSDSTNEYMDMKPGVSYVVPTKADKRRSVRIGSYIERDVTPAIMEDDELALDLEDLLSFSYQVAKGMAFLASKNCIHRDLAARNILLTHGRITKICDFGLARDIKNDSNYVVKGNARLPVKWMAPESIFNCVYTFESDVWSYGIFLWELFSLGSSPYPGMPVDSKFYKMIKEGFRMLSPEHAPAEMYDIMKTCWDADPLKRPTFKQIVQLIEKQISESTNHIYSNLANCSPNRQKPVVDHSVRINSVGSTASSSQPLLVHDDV

[7] = molecular target: Megakaryocyte-associated tyrosine-protein kinase (Homo sapiens) (UniProt P42679)
Chain of Megakaryocyte-associated tyrosine-protein kinase (Homo sapiens) (P42679 whole entry): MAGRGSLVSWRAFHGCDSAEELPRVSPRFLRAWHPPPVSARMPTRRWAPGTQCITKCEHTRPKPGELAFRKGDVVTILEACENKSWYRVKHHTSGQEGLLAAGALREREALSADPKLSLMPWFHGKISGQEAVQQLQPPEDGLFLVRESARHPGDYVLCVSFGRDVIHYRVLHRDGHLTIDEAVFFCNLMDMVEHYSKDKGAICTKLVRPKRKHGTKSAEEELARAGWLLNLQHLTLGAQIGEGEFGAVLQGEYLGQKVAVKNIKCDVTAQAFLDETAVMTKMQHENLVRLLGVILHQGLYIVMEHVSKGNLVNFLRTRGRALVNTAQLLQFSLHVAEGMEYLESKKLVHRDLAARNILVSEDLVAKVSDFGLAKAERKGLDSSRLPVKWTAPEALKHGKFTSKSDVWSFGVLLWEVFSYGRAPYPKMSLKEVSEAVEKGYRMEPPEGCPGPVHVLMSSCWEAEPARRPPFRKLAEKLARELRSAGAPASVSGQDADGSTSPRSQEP

[8] = molecular target: Serine/threonine-protein kinase PLK1 (Homo sapiens) (UniProt P53350)
Chain of Serine/threonine-protein kinase PLK1 (Homo sapiens) (P53350 whole entry): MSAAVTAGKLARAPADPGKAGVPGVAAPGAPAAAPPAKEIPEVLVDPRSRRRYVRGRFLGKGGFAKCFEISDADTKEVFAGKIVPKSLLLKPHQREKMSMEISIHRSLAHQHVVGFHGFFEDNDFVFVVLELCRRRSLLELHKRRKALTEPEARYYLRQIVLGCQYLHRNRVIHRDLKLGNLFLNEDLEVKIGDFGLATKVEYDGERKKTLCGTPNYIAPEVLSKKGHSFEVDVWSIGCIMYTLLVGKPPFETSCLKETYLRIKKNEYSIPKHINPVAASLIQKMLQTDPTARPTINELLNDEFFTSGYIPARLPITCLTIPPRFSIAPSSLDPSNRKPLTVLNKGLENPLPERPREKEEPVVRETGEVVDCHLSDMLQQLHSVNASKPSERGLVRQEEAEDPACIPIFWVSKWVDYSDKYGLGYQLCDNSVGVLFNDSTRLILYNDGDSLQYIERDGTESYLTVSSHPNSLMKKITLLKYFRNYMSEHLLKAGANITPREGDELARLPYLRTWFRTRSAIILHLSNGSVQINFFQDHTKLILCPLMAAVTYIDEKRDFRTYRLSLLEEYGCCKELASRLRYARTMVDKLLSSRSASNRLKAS

[9] = molecular target: Cyclin-dependent kinase-like 2 (Homo sapiens) (UniProt Q92772)
Chain of Cyclin-dependent kinase-like 2 (Homo sapiens) (Q92772 whole entry): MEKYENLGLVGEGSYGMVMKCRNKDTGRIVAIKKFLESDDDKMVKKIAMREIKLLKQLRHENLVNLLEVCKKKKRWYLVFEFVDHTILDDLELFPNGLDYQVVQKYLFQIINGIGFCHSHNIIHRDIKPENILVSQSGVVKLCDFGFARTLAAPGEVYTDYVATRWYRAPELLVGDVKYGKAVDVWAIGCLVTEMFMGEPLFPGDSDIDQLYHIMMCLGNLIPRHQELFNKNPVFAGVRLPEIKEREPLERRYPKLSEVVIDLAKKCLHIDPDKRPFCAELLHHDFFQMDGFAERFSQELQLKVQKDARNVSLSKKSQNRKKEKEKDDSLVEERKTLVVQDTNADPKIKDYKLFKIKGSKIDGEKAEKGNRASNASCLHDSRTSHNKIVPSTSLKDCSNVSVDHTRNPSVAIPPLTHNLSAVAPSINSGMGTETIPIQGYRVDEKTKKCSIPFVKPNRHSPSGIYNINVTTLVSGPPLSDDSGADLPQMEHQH

[10] = molecular target: Serine/threonine-protein kinase pim-2 (Homo sapiens) (UniProt Q9P1W9)
Chain of Serine/threonine-protein kinase pim-2 (Homo sapiens) (Q9P1W9 whole entry, looked up): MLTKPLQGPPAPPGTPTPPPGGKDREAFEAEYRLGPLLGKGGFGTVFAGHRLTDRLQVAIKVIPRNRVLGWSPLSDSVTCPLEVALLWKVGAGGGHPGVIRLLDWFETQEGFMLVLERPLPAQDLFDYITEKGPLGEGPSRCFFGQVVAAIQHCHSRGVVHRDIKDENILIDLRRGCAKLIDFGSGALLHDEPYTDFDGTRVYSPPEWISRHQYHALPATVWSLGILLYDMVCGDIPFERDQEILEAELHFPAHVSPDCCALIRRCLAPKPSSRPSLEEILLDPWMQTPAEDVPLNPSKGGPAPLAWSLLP

[11] = system: Serine/threonine-protein kinase B-raf (Homo sapiens), P15056 [V600E]
Chain of Serine/threonine-protein kinase B-raf (Homo sapiens), P15056 [V600E] (P15056 whole entry V600E): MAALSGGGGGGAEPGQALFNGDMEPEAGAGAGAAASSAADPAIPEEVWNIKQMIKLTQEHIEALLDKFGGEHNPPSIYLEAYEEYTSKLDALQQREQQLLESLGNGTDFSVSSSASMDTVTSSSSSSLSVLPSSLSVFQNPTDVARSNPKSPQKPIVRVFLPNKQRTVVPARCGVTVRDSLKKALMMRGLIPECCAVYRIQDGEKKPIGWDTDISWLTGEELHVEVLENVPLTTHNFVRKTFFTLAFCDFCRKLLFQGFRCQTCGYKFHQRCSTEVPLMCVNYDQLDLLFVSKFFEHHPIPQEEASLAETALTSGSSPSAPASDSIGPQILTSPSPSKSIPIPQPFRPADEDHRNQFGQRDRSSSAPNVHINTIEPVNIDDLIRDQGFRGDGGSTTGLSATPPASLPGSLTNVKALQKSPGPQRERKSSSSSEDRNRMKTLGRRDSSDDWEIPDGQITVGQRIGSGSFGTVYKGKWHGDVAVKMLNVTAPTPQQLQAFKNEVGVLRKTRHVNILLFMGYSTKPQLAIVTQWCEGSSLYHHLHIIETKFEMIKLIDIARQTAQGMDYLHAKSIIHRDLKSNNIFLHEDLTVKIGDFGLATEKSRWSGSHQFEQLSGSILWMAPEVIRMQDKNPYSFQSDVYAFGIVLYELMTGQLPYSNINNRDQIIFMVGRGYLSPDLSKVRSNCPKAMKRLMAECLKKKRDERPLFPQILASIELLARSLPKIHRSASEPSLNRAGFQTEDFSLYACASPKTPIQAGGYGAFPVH

[12] = molecular target: T3, Serine/threonine-protein kinase Chk1 (Homo sapiens) (UniProt O14757)
T3 sequence (whole entry): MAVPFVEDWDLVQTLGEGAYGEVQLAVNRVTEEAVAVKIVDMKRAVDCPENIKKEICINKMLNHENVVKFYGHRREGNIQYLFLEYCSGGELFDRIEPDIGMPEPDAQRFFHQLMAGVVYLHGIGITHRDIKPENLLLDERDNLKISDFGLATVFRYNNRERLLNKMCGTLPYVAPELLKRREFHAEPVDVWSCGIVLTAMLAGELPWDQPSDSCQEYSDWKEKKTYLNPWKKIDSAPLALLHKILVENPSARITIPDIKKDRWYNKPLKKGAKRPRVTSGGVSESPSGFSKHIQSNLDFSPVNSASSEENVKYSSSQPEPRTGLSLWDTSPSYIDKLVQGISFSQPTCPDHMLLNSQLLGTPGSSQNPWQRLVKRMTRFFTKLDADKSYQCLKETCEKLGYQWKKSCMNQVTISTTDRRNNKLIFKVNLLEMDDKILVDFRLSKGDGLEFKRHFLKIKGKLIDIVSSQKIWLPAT

[13] = molecular target: T4, Dual specificity tyrosine-phosphorylation-regulated kinase 2 (Homo sapiens) (UniProt Q92630)
T4 sequence (whole entry): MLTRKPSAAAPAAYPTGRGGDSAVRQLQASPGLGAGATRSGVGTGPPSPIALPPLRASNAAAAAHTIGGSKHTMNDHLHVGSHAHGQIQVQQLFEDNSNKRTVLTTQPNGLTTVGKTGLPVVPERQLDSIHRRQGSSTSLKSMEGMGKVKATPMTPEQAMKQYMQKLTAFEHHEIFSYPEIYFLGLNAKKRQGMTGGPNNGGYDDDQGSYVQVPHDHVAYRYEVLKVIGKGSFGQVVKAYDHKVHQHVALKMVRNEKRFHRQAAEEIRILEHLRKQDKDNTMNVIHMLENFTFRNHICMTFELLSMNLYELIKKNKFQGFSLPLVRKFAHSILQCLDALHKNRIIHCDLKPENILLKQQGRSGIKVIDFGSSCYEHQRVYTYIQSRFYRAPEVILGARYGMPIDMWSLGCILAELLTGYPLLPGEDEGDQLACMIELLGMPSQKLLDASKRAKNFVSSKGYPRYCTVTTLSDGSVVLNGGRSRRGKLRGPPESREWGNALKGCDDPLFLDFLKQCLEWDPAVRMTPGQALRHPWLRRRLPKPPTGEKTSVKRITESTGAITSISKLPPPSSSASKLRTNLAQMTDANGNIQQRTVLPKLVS

Chain of Serine/threonine-protein kinase N1 (Homo sapiens) (Q16512 2-942 limits assumed): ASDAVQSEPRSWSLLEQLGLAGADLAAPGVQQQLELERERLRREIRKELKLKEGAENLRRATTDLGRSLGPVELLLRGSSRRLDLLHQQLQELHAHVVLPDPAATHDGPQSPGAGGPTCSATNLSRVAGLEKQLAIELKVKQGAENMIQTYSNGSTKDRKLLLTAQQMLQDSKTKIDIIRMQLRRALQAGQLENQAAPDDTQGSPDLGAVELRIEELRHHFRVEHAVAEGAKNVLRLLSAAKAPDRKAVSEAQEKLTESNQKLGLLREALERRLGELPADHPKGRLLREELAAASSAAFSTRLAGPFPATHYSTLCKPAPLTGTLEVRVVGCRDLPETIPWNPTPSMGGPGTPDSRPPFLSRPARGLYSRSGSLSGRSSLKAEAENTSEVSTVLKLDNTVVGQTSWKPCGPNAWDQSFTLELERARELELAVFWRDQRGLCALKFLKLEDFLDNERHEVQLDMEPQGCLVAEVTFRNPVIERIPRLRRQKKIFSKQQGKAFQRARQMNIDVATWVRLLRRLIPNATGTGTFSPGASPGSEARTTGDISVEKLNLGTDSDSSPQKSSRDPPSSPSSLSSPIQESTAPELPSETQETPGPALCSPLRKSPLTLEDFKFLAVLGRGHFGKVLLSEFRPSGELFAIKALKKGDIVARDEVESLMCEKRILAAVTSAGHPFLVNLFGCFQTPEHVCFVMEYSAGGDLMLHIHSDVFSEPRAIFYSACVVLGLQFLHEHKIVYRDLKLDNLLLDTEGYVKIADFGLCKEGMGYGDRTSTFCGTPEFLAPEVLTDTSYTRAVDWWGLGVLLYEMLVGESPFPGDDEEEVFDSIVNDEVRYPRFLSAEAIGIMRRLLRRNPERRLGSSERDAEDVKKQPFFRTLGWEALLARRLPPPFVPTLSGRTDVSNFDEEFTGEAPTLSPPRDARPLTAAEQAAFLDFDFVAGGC

| Compound | residual activity [1] [%] | residual activity [2] [%] | residual activity [3] [%] | residual activity [4] [%] | residual activity [5] [%] | residual activity [6] [%] | residual activity [7] [%] | residual activity [8] [%] | residual activity [9] [%] | residual activity [10] [%] | residual activity [11] [%] | residual activity [12] [%] | residual activity [13] [%] |
| --- | --- | --- | --- | --- | --- | --- | --- | --- | --- | --- | --- | --- | --- |
| CC1=C(C#N)C(c2ccc3c(c2)c(NC(=O)c2ccccc2C)nn3C)C(C#N)=C(C)N1 [BAY-974] | 78 | 83 | 80 | 73 | 88 | 77 | 79 | 85 | 100 | 91 | 62 | 81 | 100 |
| CCc1ccccc1C(=O)Nc1n[nH]c2c(C)c(F)c(C3C(C#N)=C(C)N(C)C(C)=C3C#N)cc12 [BAY-3827] | 100 | 55 | 98 | 100 | 43 | 100 | 100 | 100 | 94 | 99 | 100 | 91 | 82 |
